Data reported in ChEMBL document CHEMBL4808226, “Optimization of the Urea Linker of Triazolopyridazine MMV665917 Results in a New Anticryptosporidial Lead with Improved Potency and Predicted hERG Safety Margin” (J Med Chem, 2021).
Converted amounts (≈) assume the structure as drawn. The source made the active and inactive calls. The calls are words filed in the database; no cut-off is given here.

Columns and labels:
Cryptosporidium parvum [1] = assay: Anti-cryptosporidial activity against Cryptosporidium parvum infected in HCT-8 cells pre-infected for 3 hrs followed by compound treatment and measured after 45 hrs by fluorescence microscopy analysis; assay type: functional, organism-based
[2] = Metabolic stability in human liver microsomes assessed as half life at 2 uM measured up to 30 mins in presence of NADPH by LC-MS/MS analysis; assay type: ADME, Microsome; details: for t1/2: microsomes, 0.5 h, 2 µM
[3] = (§1) Efflux ratio of apparent permeability across basolateral to apical side over apical to basolateral side in […] cells at 10 uM after 2 hrs; assay type: ADME, cell-based; details: mdckii-mdr1, 2 h, 10 µM
CYP2C9 = CYP2C9 (Homo sapiens, UniProt P11712); assay: Inhibition of CYP2C9 (unknown origin) at 10 uM relative to control; assay type: ADME
CYP2C9, sequence (P11712 whole entry): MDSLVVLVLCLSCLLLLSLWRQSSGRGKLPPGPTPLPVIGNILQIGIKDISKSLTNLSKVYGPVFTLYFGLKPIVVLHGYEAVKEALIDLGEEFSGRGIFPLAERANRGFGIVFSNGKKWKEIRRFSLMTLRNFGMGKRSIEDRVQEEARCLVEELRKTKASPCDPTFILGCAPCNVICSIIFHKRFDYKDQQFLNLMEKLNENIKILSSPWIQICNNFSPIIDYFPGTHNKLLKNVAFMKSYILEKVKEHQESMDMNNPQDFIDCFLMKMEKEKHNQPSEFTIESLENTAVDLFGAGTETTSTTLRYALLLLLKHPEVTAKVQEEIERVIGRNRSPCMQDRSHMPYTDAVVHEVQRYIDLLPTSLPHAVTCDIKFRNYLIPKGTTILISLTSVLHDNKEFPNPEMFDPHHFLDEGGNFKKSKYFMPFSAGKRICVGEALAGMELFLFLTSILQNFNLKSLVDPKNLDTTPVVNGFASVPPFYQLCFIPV

CYP2C19 = CYP2C19 (Homo sapiens, UniProt P33261); assay: Inhibition of CYP2C19 (unknown origin) at 10 uM relative to control; assay type: ADME
CYP2C19, sequence (P33261 whole entry): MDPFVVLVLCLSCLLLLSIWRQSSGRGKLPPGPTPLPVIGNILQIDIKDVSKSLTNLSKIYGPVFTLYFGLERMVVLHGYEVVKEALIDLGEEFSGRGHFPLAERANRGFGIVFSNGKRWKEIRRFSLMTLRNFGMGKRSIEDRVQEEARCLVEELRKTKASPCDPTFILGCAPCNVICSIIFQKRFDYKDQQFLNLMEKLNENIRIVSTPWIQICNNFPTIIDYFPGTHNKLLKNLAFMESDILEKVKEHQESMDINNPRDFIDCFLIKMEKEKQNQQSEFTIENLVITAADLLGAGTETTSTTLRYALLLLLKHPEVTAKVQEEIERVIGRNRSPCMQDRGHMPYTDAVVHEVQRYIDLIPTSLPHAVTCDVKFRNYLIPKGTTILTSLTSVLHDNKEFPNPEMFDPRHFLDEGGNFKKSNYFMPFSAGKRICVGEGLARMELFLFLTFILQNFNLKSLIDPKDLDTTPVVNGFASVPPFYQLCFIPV

[4] = Kinetic aqueous solubility of the compound in pH 7.4; assay type: physicochemical; details: buffer, read-out: Kinetic_solubility
[5] = Metabolic stability in mouse liver microsomes assessed as half life at 2 uM measured up to 30 mins in presence of NADPH by LC-MS/MS analysis; assay type: ADME, Microsome; details: 0.5 h
Cryptosporidium parvum [6] = assay: Anti-cryptosporidial activity against Cryptosporidium parvum infected in HCT-8 cells assessed as rate of parasite elimination at 6 times of EC90 concentration pre-infected for 24 hrs followed by compound treatment; assay type: functional, organism-based
Cryptosporidium parvum [7] = assay: Anti-cryptosporidial activity against Cryptosporidium parvum infected in HCT-8 cells assessed as rate of parasite elimination at 6 times of EC90 concentration pre-infected for 24 hrs followed by compound treatment measured after 98 hrs; assay type: functional
HCT-8 = assay: Cytotoxicity against human HCT8 cells assessed as reduction in cell viability after 48 hrs by CellTiter aqueous assay; assay type: cell-based; details: hct-8, 48 h
hERG (KCNH2) [8] = target: T1, hERG (KCNH2) (Homo sapiens, UniProt Q12809); assay: Displacement of [3H]-dofetilide from human ERG at 10 uM relative to control; details: probe [3H]-dofetilide
T1 sequence (Q12809 whole entry): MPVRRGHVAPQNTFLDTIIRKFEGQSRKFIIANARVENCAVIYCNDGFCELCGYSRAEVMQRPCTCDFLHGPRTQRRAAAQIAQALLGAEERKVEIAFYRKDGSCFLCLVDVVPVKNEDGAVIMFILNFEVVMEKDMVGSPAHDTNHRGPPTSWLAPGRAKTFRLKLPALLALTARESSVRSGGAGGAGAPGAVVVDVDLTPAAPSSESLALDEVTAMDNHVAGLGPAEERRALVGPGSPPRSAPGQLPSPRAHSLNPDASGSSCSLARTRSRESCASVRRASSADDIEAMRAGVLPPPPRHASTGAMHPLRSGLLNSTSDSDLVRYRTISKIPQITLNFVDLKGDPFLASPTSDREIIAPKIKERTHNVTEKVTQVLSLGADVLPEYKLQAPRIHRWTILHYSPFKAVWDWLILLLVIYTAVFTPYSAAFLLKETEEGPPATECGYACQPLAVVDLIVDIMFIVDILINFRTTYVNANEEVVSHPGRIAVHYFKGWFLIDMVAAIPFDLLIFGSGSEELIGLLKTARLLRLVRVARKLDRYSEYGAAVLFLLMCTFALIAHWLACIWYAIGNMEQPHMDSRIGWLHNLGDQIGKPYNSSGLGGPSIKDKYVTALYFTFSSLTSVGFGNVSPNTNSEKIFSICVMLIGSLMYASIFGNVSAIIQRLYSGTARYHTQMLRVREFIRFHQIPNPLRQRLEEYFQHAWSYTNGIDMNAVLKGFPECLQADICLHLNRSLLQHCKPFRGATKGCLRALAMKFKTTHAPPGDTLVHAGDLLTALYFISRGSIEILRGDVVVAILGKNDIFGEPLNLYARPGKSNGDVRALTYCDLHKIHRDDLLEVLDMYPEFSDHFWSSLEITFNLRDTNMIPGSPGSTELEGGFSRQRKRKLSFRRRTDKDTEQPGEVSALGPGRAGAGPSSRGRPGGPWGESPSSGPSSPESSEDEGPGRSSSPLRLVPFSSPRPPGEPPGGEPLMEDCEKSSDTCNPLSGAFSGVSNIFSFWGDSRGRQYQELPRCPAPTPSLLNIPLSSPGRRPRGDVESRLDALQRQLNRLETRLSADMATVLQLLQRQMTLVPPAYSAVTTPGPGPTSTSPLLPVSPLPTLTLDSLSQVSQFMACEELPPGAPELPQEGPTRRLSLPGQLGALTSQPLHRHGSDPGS

hERG (KCNH2) [9] = target: T1, hERG (KCNH2); assay: Inhibition of human ERG expressed in CHO cells at 1 uM by automated patch clamp electrophysiology assay relative to control; assay type: cell-based; details: CHO cells that express hERG
hERG (KCNH2) [10] = target: T1, hERG (KCNH2); assay: Inhibition of human ERG expressed in CHO cells at 10 uM by automated patch clamp electrophysiology assay relative to control; assay type: cell-based; details: CHO cells that express hERG
hERG (KCNH2) [11] = target: T1, hERG (KCNH2); assay: Inhibition of human ERG expressed in CHO cells at 100 uM by automated patch clamp electrophysiology assay relative to control; assay type: cell-based; details: CHO cells that express hERG
[12] = Protein binding in mouse plasma at 10 uM after 6 hrs by LC-MS/MS based equilibrium dialysis method; assay type: ADME, cell-free
[13] = Protein binding in human plasma at 10 uM after 6 hrs by LC-MS/MS based equilibrium dialysis method; assay type: ADME, cell-free
[14] = AUC in CD1 mouse plasma at 1 mg/kg, iv measured upto 6 hrs by LC-MS/MS anlaysis; assay type: ADME, organism-based; design: route intravenous, dose 1 mg/kg, time <=6; details: in vivo
[15] = AUC in CD1 mouse jejunum at 1 mg/kg, iv measured upto 6 hrs by LC-MS/MS anlaysis; assay type: ADME, organism-based; design: route intravenous, dose 1 mg/kg, time <=6; details: in vivo
[16] = AUC in CD1 mouse plasma at 10 mg/kg, po measured upto 24 hrs by LC-MS/MS anlaysis; assay type: ADME, organism-based; design: route oral, dose 10 mg/kg, time <=24; details: in vivo
[17] = AUC in CD1 mouse jejunum at 10 mg/kg, po measured upto 24 hrs by LC-MS/MS anlaysis; assay type: ADME, organism-based; design: route oral, dose 10 mg/kg, time <=24; details: in vivo
[18] = Cmax in CD1 mouse plasma at 1 mg/kg, iv measured upto 6 hrs by LC-MS/MS anlaysis; assay type: ADME, organism-based; design: route intravenous, dose 1 mg/kg, time <=6; details: in vivo
[19] = Cmax in CD1 mouse jejunum at 1 mg/kg, iv measured upto 6 hrs by LC-MS/MS anlaysis; assay type: ADME, organism-based; design: route intravenous, dose 1 mg/kg, time <=6; details: in vivo
[20] = Cmax in CD1 mouse plasma at 10 mg/kg, po measured upto 24 hrs by LC-MS/MS anlaysis; assay type: ADME, organism-based; design: route oral, dose 10 mg/kg, time <=24; details: in vivo
[21] = Cmax in CD1 mouse jejunum at 10 mg/kg, po measured upto 24 hrs by LC-MS/MS anlaysis; assay type: ADME, organism-based; design: route oral, dose 10 mg/kg, time <=24; details: in vivo
[22] = Half life in CD1 mouse plasma at 1 mg/kg, iv measured upto 6 hrs by LC-MS/MS anlaysis; assay type: ADME, organism-based; details: in vivo
[23] = Half life in CD1 mouse jejunum at 1 mg/kg, iv measured upto 6 hrs by LC-MS/MS anlaysis; assay type: ADME, organism-based; details: in vivo
[24] = Volume of distribution in CD1 mouse plasma at 1 mg/kg, iv measured upto 6 hrs by LC-MS/MS anlaysis; assay type: ADME, organism-based; details: in vivo
[25] = Volume of distribution in CD1 mouse jejunum at 1 mg/kg, iv measured upto 6 hrs by LC-MS/MS anlaysis; assay type: ADME, organism-based; details: in vivo
[26] = Oral bioavailability in CD1 mouse jejunum at 10 mg/kg measured upto 24 hrs by LC-MS/MS anlaysis; assay type: ADME, organism-based; details: in vivo
Cryptosporidium parvum [27] = assay: Anti-cryptosporidial activity against Cryptosporidium parvum infected in NSG mouse assessed as reduction in parasite infection at 50 mg/kg, po administered twice daily for 11 days by qPCR analysis; assay type: functional; design: scale not given: the % may be the effect or the level left; details: time 11 day
Cryptosporidium parvum [28] = assay: Anti-cryptosporidial activity against Cryptosporidium parvum infected in NSG mouse assessed as reduction in parasite infection at 50 mg/kg, po administered twice daily for 21 days by qPCR analysis; assay type: functional, organism-based; details: time 21.0 day
[29] = target: Voltage-gated inwardly rectifying potassium channel KCNH2 (Homo sapiens, UniProt Q12809); assay: Antagonist activity at human ERG
Voltage-gated inwardly rectifying potassium channel KCNH2, sequence (Q12809 whole entry): as above

hERG (KCNH2) [30] = target: T1, hERG (KCNH2); assay: Antagonist activity at human ERG relative to control
Cryptosporidium parvum [31] = assay: Anti-cryptosporidial activity against Cryptosporidium parvum infected in HCT-8 cells assessed as rate of parasite elimination at above EC90 concentration pre-infected for 24 hrs followed by compound treatment; assay type: functional, organism-based
MDR1 (P-gp) = assay: as §1; assay type: ADME, cell-based; details: MDCK-MDR1
Cryptosporidium hominis = assay: Anti-cryptosporidial activity against Cryptosporidium hominis infected in HCT-8 cells pre-infected for 3 hrs followed by compound treatment and measured after 45 hrs by fluorescence microscopy analysis; assay type: functional, organism-based

Question: With `O=C(Cc1ccc(Cl)c(Cl)c1)NC1CCN(c2ccc3nncn3n2)CC1` as the compound, how does the EC50 (Cryptosporidium parvum [1]) read?
Answer: > 25 µM

Question: For `CC1CN(c2ccc3nncn3n2)CCN1C(=O)Nc1ccc(Cl)c(Cl)c1` (stereo unspecified), which EC50 (Cryptosporidium parvum [1]) is on record?
Answer: 32 µM

Question: With `O=C(Cc1ccc(Cl)c(Cl)c1)N1CCC(c2ccc3nncn3n2)CC1` as the compound, how does the t1/2 [2] read?
Answer: 7.8 min

Question: And the EC50 (Cryptosporidium parvum [1])?
Answer: 11 µM

Question: And the Ratio [3]?
Answer: 9.8

Question: For `O=C(NC1CCN(c2ccc3nncn3n2)CC1)c1ccc(Cl)c(Cl)c1`, which EC50 (Cryptosporidium parvum [1]) is on record?
Answer: 12 µM

Question: With `O=C(Cc1ccc2ccccc2c1)N1CCN(c2ccc3nncn3n2)CC1` as the compound, how does the EC50 (Cryptosporidium parvum [1]) read?
Answer: 14 µM

Question: Which inhibition at 10 µM (CYP2C9) does the source give for `O=C(Cc1ccc(Cl)c(Cl)c1)N1CCN(c2ccc3nncn3n2)CC1` here?
Answer: 31%

Question: And the inhibition at 10 µM (CYP2C19)?
Answer: 44%

Question: And the t1/2 [2]?
Answer: > 30 min

Question: And the solubility kinetic [4]?
Answer: 18 µM (≈ 7.04 µg/mL)

Question: And the t1/2 [5]?
Answer: > 30 min

Question: What about the Activity (Cryptosporidium parvum [6]) of the same compound?
Answer: Active

Question: And the Activity (Cryptosporidium parvum [7])?
Answer: 99.9%

Question: And the CC50 (HCT-8)?
Answer: > 100 µM

Question: What about the inhibition at 10 µM (hERG (KCNH2) [8]) of the same compound?
Answer: 11%

Question: And the inhibition at 1 µM (hERG (KCNH2) [9])?
Answer: 19%

Question: And the inhibition at 10 µM (hERG (KCNH2) [10])?
Answer: 67%

Question: What about the inhibition at 100 µM (hERG (KCNH2) [11]) of the same compound?
Answer: 94%

Question: And the PPB [12]?
Answer: 92.4%

Question: And the PPB [13]?
Answer: 97.8%

Question: And the AUC [14]?
Answer: 50000 ng·h/mL

Question: And the AUC [15]?
Answer: 55000 ng·h/mL

Question: What about the AUC [16] of the same compound?
Answer: 5200 ng·h/mL

Question: What about the AUC [17] of the same compound?
Answer: 240000 ng·h/mL

Question: What about the Cmax [18] of the same compound?
Answer: 17000 ng/mL

Question: And the Cmax [19]?
Answer: 15000 ng/mL

Question: And the Cmax [20]?
Answer: 1500 ng/mL

Question: And the Cmax [21]?
Answer: 36000 ng/mL

Question: And the t1/2 [22]?
Answer: 132 min

Question: What about the t1/2 [23] of the same compound?
Answer: 324 min

Question: What about the Vd [24] of the same compound?
Answer: 0.062 L/kg

Question: And the Vd [25]?
Answer: 0.13 L/kg

Question: What about the F [26] of the same compound?
Answer: 1%

Question: And the Activity (Cryptosporidium parvum [27])?
Answer: >99%

Question: What about the Activity (Cryptosporidium parvum [28]) of the same compound?
Answer: Active

Question: And the EC50 [29]?
Answer: 7.7 µM

Question: What about the Emax (hERG (KCNH2) [30]) of the same compound?
Answer: 79%

Question: What does the source list for `O=C(Cc1ccccc1)N1CCN(c2ccc3nncn3n2)CC1`?
Answer: EC50 (Cryptosporidium parvum [1]): 22 µM; inhibition at 10 µM (hERG (KCNH2) [8]): 4%

Question: Which EC50 (Cryptosporidium parvum [1]) does the source give for `CC1CN(c2ccc3nncn3n2)CCN1C(=O)Cc1ccc(Cl)c(Cl)c1` (stereo unspecified) here?
Answer: 7.1 µM

Question: What does the source list for `CC(=O)Oc1ccccc1C(=O)Nc1ncc([N+](=O)[O-])s1` [NITAZOXANIDE]?
Answer: EC50 (Cryptosporidium parvum [1]): 2 µM; Activity (Cryptosporidium parvum [31]): Active

Question: What does the source list for `O=C(Nc1ccc(Cl)c(Cl)c1)N1CCC(c2ccc3nncn3n2)CC1`?
Answer: t1/2 [2]: > 30 min; EC50 (Cryptosporidium parvum [1]): 7 µM; Ratio [3]: 6.6

Question: For `O=C(Nc1ccc(Cl)c(Cl)c1)N1CC=C(c2ccc3nncn3n2)CC1`, which half-life at 2 µM ([2]; liver microsomes) is on record?
Answer: > 30 min

Question: What about the solubility kinetic [4] of the same compound?
Answer: 59 µM (≈ 23 µg/mL)

Question: And the EC50 (Cryptosporidium parvum [1])?
Answer: 0.61 µM

Question: And the inhibition at 10 µM (hERG (KCNH2) [8])?
Answer: 56%

Question: What about the efflux ratio at 2 h, 10 µM (MDR1 (P-gp)) of the same compound?
Answer: 6.5

Question: Which EC50 (Cryptosporidium parvum [1]) does the source give for `COc1ccc(CC(=O)N2CCN(c3ccc4nncn4n3)CC2)cc1` here?
Answer: 17 µM

Question: Which results are given for `O=C(Nc1ccc(Cl)cc1)N1CCN(c2ccc3nncn3n2)CC1`?
Answer: t1/2 [2]: > 30 min; solubility kinetic [4]: 200 µM (≈ 71.6 µg/mL); t1/2 [5]: > 30 min; EC50 (Cryptosporidium parvum [1]): 2.1 µM; EC50 (Cryptosporidium hominis): 6 µM; CC50 (HCT-8): > 100 µM; inhibition at 10 µM (hERG (KCNH2) [8]): 8%; inhibition at 1 µM (hERG (KCNH2) [9]): 12%; inhibition at 10 µM (hERG (KCNH2) [10]): 48%; inhibition at 100 µM (hERG (KCNH2) [11]): 88%; Ratio [3]: 8.9

Question: With `O=C(Cc1ccc(F)cc1)N1CCN(c2ccc3nncn3n2)CC1` as the compound, how does the EC50 (Cryptosporidium parvum [1]) read?
Answer: 0.86 µM

Question: With `COc1cccc(CC(=O)N2CCN(c3ccc4nncn4n3)CC2)c1` as the compound, how does the EC50 (Cryptosporidium parvum [1]) read?
Answer: 18 µM

Question: Which EC50 (Cryptosporidium parvum [1]) does the source give for `O=C(c1ccc(Cl)c(Cl)c1)N1CCN(c2ccc3nncn3n2)CC1` here?
Answer: > 25 µM
